Earlier results, collected in patent US20060280819A1, “Ellagic acid food supplement prepared from pomegranate seed” (priority 2005, published 2006).

Legend:
[1] = tested on: cancer cells; conditions: lab tests
[2] = tested on: normal healthy cells; conditions: lab tests
[3] = tested on: breast, pancreas, esophageal, skin, colon and prostate cancer cells
[4] = tested on: p53 gene; conditions: clinical tests

Structure (SMILES): O=c1oc2c(O)c(O)cc3c(=O)oc4c(O)c(O)cc1c4c23 [ellagic acid]
- apoptosis (cell death) of cancer cells [1]: causes apoptosis
- effect on normal healthy cells [2]: no change
- time to G-arrest (inhibiting and stopping mitosis-cancer cell division) [3]: ≤ 48 h
- time to apoptosis (normal cell death) [3]: ≤ 72 h
- effect on destruction of the p53 gene by cancer cells [4]: prevents the destruction of the p53 gene
